One compound from US20070248633A1, “COMPOSITIONS CONTAINING A HYDROXYLATED DIPHENYLMETHANE COMPOUND, METHODS OF USE” (L'OREAL, priority 2006, published 2007) can be followed below.

Molecules are shown by their SMILES.

The series is described as follows: Tests of solubilization of a hydroxylated diphenylmethane compound of formula (I) in solubilizers. The format is physicochemical. The settings on record: for % max solubility of the hydroxylated diphenylmethane compound of formula (I): optionally heated to 45° C., stirred one hour. The procedure:
The compound Phenylethylbenzendiol marketed under the name Symwhite® by Symrise is used as hydroxylated diphenylmethane compound of formula (I).
This compound is weighed and placed in a sealed specimen tube.
Several solubilizers are tested: 10 ml of solubilizer are placed in a beaker and the compound Phenylethylbenzendiol is added mg per mg. The suspension, optionally heated to 45° C., is stirred by magnetic stirring for one hour.
The dissolution or non-dissolution of the hydroxylated diphenylmethane compound of formula (I), and its variation over time are then monitored.
The non-solubility of the hydroxylated diphenylmethane compound of formula (I) in the solubilizer is macroscopically characterized by a precipitate or just a cloudy solution, and microscopically by the presence of crystals.

In the case of `CC(c1ccccc1)c1ccc(O)cc1O` (centres unmarked) [4-(1-phenylethyl)-1,3-benzenediol], the amount solubilized result runs as follows: (solubilizer: 2-octyldodecanol) “more than 20 % by weight”; (solubilizer: Dicaprylyl carbonate) “more than 20 % by weight”; (solubilizer: dimethyl isosorbide) “more than 20 % by weight”; (solubilizer: isopropyl N-lauroylsarcosinate (remainder of the solution consisting of the solubilizer)) “up to 42 % by weight”; (solubilizer: octyl methoxycinnamate) “more than 20 % by weight”. Besides, the “% max solubility of the hydroxylated diphenylmethane compound of formula (I)” value runs as follows: (solvent: 2-Octyldodecanol (EUTANOL G from COGNIS)) 22.52%; (solvent: Apricot oil (APRICOT KERNEL OIL from DESERT WHALE)) 10.00%; (solvent: Apricot oil (APRICOT KERNEL OIL from DESERT WHALE), listed as hydroxylated diphenylmethane compound (I)) at most 10%; (solvent: Dicaprylyl carbonate (CETIOL CC from COGNIS)) 26.74%; (solvent: Dimethyl isosorbide (ARLASOLVE DMI from UNIQEMA)) 31.30%; (solvent: Hydrogenated isoparaffin (PARLEAM from NOF CORPORATION), paraffin oil) “not soluble”. Besides, the “% max solubility of the hydroxylated diphenylmethane compound of formula (I)” value is reported as “does not make it possible to solubilize” (solvent: Hydrogenated isoparaffin (PARLEAM from NOF CORPORATION), paraffin oil, listed as hydroxylated diphenylmethane compound (I)); 42.00% (solvent: Isopropyl N-lauroylsarcosinate (ELDEW SL 205 from AJINOMOTO)); 26.00% (solvent: Octyl methoxycinnamate (PARSOL MCX from GIVAUDAN (DSM Nutritional Products))).
